# Laboratory results as given in patent publication US12077495B2 (priority 2018, dated 2024).
# What was measured:
# [1] = molecular target: T1, GABAB receptor (Rattus norvegicus, UniProt Q9Z0U4); assay: 3H-GABA binding assay for GABAB, rat cortex membranes; settings: up to concentrations of 1 mM
# T1 construct: using crude synaptic membranes prepared from rat cortex; from tissue; host or cells: rat cortex, crude synaptic membranes
# Protocol: Following incubation by rapid filtration through GF/C unifilters (PerkinElmer, Boston, MA, USA), using a 96-well Packard cell-harvester (PerkinElmer) and three fast washes with ice-cold binding buffer, microscint scintillation fluid (PerkinElmer) was added to the dried filters, and the amount of filter-bound radioactivity was quantified in a Packard TopCount microplate scintillation counter (PerkinElmer). […] The binding reactions were terminated by rapid filtration through GF/C filters (Whatman), soaked in 0.1% polyethylene imine, using a Brandell 48-well harvester and rapid washing with ice-cold binding buffer. […] Data are presented as % specific binding (of control), and IC50 or Ki values calculated by means of non-linear regression curve-fitting and the Cheng-Prusoff equation, respectively.
# [2] = test system: proton-coupled transporters (MCTs) endogenously present in tsA201 cells; assay: MCT-mediated uptake in tsA201 cells (BCECF pH-sensitive dye); format: cell-based; settings: 2 min, read-out: EC50, concentration-dependent decrease in intracellular pH
# Protocol: Uptake was measured using the cell-permeable pH-sensitive dye 2′,7′-Bis(2-carboxyethyl)-5(6)-carboxyfluorescein acetoxymethyl ester (BCECF-AM) (Molecular Probes), utilizing the endogenous expression of MCTs in tsA201 cells. The day before the assay, cells were plated (50,000 cells/well) in black poly-D-lysin-coated 96-well plates with clear bottom (VWR, Radnor, PA, USA). […] Cells were then washed twice with 100 μl buffer and the cell plate assayed at 37° C. in a FlexStation 3 reader (Molecular Devices).
# Cells (tsA201; related to HEK293-T) known to express MCTs were grown in 96-well plates and exposed to compounds and pH-decreased measured for 2 min.
# [3] = molecular target: T1, GABAB receptor; settings: cited from earlier work
# T1 sequence (Q9Z0U4 17-960 limits assumed): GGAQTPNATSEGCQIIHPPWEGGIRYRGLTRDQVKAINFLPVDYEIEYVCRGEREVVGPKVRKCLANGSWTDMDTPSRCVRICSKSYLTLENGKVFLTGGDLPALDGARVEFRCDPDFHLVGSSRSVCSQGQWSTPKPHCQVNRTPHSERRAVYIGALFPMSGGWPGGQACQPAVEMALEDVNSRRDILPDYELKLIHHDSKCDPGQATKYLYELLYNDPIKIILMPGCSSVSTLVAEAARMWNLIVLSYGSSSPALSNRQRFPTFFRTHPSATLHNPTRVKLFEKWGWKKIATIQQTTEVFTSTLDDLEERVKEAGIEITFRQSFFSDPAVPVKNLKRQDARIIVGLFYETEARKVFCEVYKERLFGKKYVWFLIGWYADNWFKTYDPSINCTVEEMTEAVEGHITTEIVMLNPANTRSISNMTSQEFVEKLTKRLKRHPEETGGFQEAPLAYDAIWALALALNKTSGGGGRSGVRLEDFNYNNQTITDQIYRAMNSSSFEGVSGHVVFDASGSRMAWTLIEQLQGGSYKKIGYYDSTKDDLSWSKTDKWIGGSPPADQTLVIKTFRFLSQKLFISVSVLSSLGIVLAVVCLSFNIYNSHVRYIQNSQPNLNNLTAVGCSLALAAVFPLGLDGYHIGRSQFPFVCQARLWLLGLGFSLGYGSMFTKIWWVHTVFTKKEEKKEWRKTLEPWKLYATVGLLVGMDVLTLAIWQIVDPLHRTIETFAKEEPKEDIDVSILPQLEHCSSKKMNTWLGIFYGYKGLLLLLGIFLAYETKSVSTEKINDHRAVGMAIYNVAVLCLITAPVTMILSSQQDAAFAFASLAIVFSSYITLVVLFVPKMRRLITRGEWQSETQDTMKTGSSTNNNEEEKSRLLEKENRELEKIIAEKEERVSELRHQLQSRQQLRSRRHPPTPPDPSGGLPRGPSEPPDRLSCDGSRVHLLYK
# T1 sequence (O88871 41-940 partner): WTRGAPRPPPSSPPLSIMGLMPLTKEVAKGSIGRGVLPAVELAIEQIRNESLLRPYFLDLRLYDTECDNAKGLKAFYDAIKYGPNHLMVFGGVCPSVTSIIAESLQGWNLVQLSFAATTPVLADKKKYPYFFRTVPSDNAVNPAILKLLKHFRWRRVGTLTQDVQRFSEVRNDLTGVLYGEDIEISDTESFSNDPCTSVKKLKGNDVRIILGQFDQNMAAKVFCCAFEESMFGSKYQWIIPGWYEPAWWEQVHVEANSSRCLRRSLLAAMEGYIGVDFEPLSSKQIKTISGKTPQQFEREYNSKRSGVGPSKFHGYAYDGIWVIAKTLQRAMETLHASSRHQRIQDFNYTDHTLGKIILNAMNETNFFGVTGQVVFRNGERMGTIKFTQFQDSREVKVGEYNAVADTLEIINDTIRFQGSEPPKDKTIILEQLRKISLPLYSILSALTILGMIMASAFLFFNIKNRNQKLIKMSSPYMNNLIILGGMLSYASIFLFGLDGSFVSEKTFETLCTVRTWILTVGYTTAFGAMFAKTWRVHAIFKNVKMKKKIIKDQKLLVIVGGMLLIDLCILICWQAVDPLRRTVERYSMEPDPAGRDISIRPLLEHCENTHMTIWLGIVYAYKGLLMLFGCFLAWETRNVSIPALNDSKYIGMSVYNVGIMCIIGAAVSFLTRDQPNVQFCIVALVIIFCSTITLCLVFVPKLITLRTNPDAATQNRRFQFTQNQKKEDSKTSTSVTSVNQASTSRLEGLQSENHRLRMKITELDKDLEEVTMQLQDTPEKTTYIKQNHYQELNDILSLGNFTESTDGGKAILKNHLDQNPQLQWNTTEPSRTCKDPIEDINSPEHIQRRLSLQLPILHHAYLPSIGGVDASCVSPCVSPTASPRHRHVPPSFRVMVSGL
structure (smiles),measurement,setting,value
"O=C(O)C1=CC(O)CC1 (stereo not drawn) [Compound A, 3-hydroxycyclopent-1-enecarboxylic acid]",inhibition of 3H-GABA binding to GABAB receptor,[1],no ability to compete
same,EC50,[2],8.2 mM
same,affinity for the GABAB binding site,[3],does not display any affinity
